Where two headings read alike, the source gives them in different places.
What was measured:
[1] = tested on: A549 (pulmonary basal cell alveolar adenocarcinoma); experiment: MTT assay, A549; type: cell-based; details: Homo sapiens, 48 h incubation, read-out: IC50 [µM] ± SD A549
Excerpt: (§1) The MTT (3-[4,5-dimethylthiazol-2-yl]-2,5-diphenyl tetrazolium bromide) assay was used to determine the cytotoxicity of tested compounds towards different cell lines: normal human dermal fibroblasts (NHDF), kidney epithelial cells (VERO), fibroblasts from Chinese hamster lung (V79) and four human cancer cells: A549 (pulmonary basal cell alveolar adenocarcinoma), MCF-7 (breast adenocarcinoma), LoVo (colon adenocarcinoma), and its drug resistant subline LoVo/Dx. The cell lines used in this study express COX-1 and COX-2. The LoVo line expressed COX-1, the LoVo/Dx subline express both COX-1 and COX-2 [61].
(§2) Each cell line was grown in the culture media recommended by supplier. Before the test they were detached with trypsin/EDTA solution, then to neutralize the effect of Trypsin/EDTA solution, FBS containing medium was used. After centrifugation the cells were stained with 0.4% solution of trypan blue, counted and inspected for viability using microscope. In the end, cells were inserted into 96-well culture plates and incubated in CO2 incubator (37 °C, 24 h). The number of cells was 2 × 10^3 cells per well. The tested compounds with different concentrations (5, 10, 20, 50, 100 µM) were dissolved in DMSO and then added to the cells (the final DMSO concentration was 0.1%). The cultures were incubated for another 48 h. After that time the cells were collected to be used in tests.
(§3) MTT assay was used to find out how tested compounds influence the metabolic activity of investigated cell lines. The cells were incubated with tested compounds. After removing of supernatant, 1 mg/mL of MTT solution in MEM was added to the plate (to each well) and then the plates were incubated at 37 °C for 2 h. The medium was removed again, and formazan crystals were dissolved in isopropanol. A Varioscan LUX microplate reader (Thermo Fisher Scientific, Waltham, MA, USA) was used to measure absorbance at 570 nm.

LoVo cell line = experiment: Intracellular ROS level (DCFH-DA), LoVo cells; type: cell-based; details: Homo sapiens, 4 h, compound 100 μM
Description: (§4) Two cell lines were chosen for investigations: V79 (Chinese hamster lung fibroblasts) and LoVo. V79 normal cells are widely used as the cell line tested in the studies of the oxidative stress. These cells are a living system model to explain the mechanism of ROS effects caused by varied compounds [73].
(§5) First, the tested compounds (in concentration of 100 μM) were added to the cell cultures and cells were incubated for 4 h. Then cells were washed and incubated with DCFH-DA (non-fluorescent probe) in dark at 37 °C for 2 h at CO2 [79]. Non-fluorescent, non-polar DCFH-DA (2′7′-dichlorodihydrofluorescein diacetate) at concentration of 25 μM was used as a marker of oxidative stress to determine the intracellular ROS levels. […] In this time, DCFH-DA which penetrated into the cells, was hydrolyzed by esterases to polar, non-fluorescent DCFH (2′7′-dichlorodihydrofluorescein) and then oxidized in the presence of ROS (reactive oxygen species) to fluorescent DCF (2′7′-dichlorofluorescein). DCF was measured using Varioscan LUX microplate reader (Thermo Fisher Scientific, Waltham, MA, USA) at λex = 485 nm and λem = 535 nm.
(§6) E is the culture with the tested compound and E0 is the negative control without the compound. The routine statistical methods: two-way analysis of variance ANOVA as well as Tukey’s post-hoc test were used. It allowed us to determine the statistical significance of results, where p < 0.05 was set as significant. The statistical indicators were estimated using Statistica 13.3 software.

[2] = tested on: LoVo (colon adenocarcinoma); experiment: MTT assay, LoVo; type: cell-based; details: Homo sapiens, 48 h incubation, read-out: IC50 [µM] ± SD LoVo
Excerpt: as §1, §2, §3

V79 cell line = experiment: Intracellular ROS level (DCFH-DA), V79 cells; type: cell-based, Chinese hamster; details: Cricetulus griseus, 4 h, V79, compound 100 μM
Description: as §4
as §5, with “nm. Then results were presented as E/E0 where E is test sample value and E0—control value.” for “nm.”
as §6, with “[…] E is” for “E is”

[3] = tested on: LoVo/Dx (drug resistant subline of LoVo); experiment: MTT assay, LoVo/Dx; type: cell-based; details: Homo sapiens, 48 h incubation, read-out: IC50 [µM] ± SD LoVo/Dx
Excerpt: as §1
as §2, with “In the end, cells were inserted into 96-well culture plates and incubated in CO2 incubator (37 °C, 24 h).” left out
MTT assay was used to find out how tested compounds influence the metabolic activity of investigated cell lines. The cells were incubated with tested compounds. […] The medium was removed again, and formazan crystals were dissolved in isopropanol.

[4] = tested on: VERO (kidney epithelial cells); experiment: MTT assay, VERO; type: cell-based; details: 48 h incubation
Excerpt: as §1, §2, §3

[5] = tested on: NHDF (normal human dermal fibroblasts); experiment: MTT assay, NHDF; type: cell-based; details: 48 h incubation, read-out: IC50 [µM] ± SD NHDF
Excerpt: as §1, §2, §3

[6] = tested on: V79 (fibroblasts from Chinese hamster lung); experiment: MTT assay, V79; type: cell-based; details: Cricetulus griseus, Fibroblast, 48 h incubation, read-out: IC50 [µM] ± SD V79
Excerpt: as §1, §2, §3

[7] = with H2O2 (100 μM, 30 min), n = 5, read-out: ROS scavenging activity, Mean E/E0 ± SD, with H2O2
[8] = without H2O2, n = 5, read-out: ROS scavenging activity, Mean E/E0 ± SD, without H2O2

Row | SMILES | IC50 [1] [µM] | activity at 100 µM (LoVo cell line; [7]) [%] | activity at 100 µM (LoVo cell line; [8]) [%] | IC50 [2] [µM] | activity at 100 µM (V79 cell line; [7]) [%] | activity at 100 µM (V79 cell line; [8]) [%] | IC50 [3] [µM] | IC50 [µM] ± SD VERO [4] | IC50 [5] [µM] | IC50 [6] [µM]
1 | CN1C(C(=O)Nc2ccccn2)=C(O)c2ccccc2S1(=O)=O [Piroxicam, piroxicam, reference compound] | 110 ± 28.2 | 81 ± 19 | 72 ± 19 | 122 ± 10.2 | 67 ± 17 | 98 ± 17 | 126 ± 11.2 | no toxicity | 162 ± 22.9 | 213 ± 23.2
2 | Cc1c(C)c2c(c(C)c1O)CCC(C)(C(=O)O)O2 (stereo not shown) [Trolox, trolox, reference compound] | – | 29 ± 15 | 85 ± 13 | – | 15 ± 8 | 71 ± 5 | – | – | – | –
3 | O=C1O[C@H]([C@@H](O)CO)C(O)=C1O [Ascorbic acid, ascorbic acid, reference compound] | – | 32 ± 9 | 89 ± 11 | – | 22 ± 12 | 83 ± 13 | – | – | – | –
4 | Cc1cnc(NC(=O)C2=C(O)c3ccccc3S(=O)(=O)N2C)s1 [Meloxicam, meloxicam, reference compound] | – | 89 ± 16 | – | – | 85 ± 18 | 115 ± 19 | 142 ± 9.46 | no toxicity | 196 ± 35.2 | 201 ± 17.8
